From PMC8801435, “Legume Alternative Oxidase Isoforms Show Differential Sensitivity to Pyruvate Activation” (Frontiers in Plant Science, 2022)

What was measured:
Experiment in all cases: O2 consumption (Clark electrode), activation of AOX in inverted membrane vesicles
Format in all cases: biochemical
GmAOX2D = target: T1, GmAOX2D (Glycine max, UniProt O03376); conditions: activator; 2.5 mM NADH, 5 mM DTT, 1 mM KCN, pH 7.0; read-out: Present study / K1/2 PYR
T1 construct: gene AOX3; mature form, predicted mitochondrial target peptide removed, new start Met (forward primer encodes M-STLPEVK), pET22b(+), E. coli BHH8 inverted membrane vesicles; apparent 31 kDa; reduced (DTT)
T1 sequence (O03376 51-326): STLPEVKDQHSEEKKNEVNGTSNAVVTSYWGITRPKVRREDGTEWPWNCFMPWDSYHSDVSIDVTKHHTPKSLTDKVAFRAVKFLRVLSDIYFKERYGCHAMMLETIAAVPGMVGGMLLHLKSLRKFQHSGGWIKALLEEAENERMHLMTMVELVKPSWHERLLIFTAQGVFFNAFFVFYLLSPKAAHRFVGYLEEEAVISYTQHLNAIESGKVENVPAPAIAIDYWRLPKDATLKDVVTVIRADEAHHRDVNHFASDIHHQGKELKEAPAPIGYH
From the text: O2 consumption (Clark electrode), activation of AOX in inverted membrane vesicles on GmAOX2D

GmAOX2A = target: T2, GmAOX2A (Glycine max, UniProt Q41266); conditions: activator; 2.5 mM NADH, 5 mM DTT, 1 mM KCN, pH 7.0; discussion text b26 prints 90 μM; read-out: Present study / K1/2 PYR
T2 construct: gene AOX2; mature form, predicted mitochondrial target peptide removed, new start Met (forward primer encodes M-MVSPA), pET22b(+), E. coli BHH8 inverted membrane vesicles; apparent 29 kDa; reduced (DTT)
T2 sequence (Q41266 58-333): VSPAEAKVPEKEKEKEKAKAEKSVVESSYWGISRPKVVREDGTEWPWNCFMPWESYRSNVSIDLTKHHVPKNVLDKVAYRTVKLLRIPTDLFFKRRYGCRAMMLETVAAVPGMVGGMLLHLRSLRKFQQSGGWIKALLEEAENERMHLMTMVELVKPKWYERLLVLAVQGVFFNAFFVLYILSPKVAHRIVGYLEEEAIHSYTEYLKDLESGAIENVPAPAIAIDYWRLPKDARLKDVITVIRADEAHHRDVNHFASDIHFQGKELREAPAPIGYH
From the text: O2 consumption (Clark electrode), activation of AOX in inverted membrane vesicles on GmAOX2A

GmAOX1 = target: T3, GmAOX1 (Glycine max, UniProt Q07185); conditions: activator; 2.5 mM NADH, 5 mM DTT, 1 mM KCN, pH 7.0; discussion text b26 prints 6 μM; read-out: Present study / K1/2 PYR
T3 construct: gene AOX1; mature form, predicted mitochondrial target peptide removed, new start Met (forward primer encodes M-ESTLALS), pET22b(+), E. coli BHH8 inverted membrane vesicles; apparent 28 kDa; reduced (DTT)
T3 sequence (Q07185 42-321): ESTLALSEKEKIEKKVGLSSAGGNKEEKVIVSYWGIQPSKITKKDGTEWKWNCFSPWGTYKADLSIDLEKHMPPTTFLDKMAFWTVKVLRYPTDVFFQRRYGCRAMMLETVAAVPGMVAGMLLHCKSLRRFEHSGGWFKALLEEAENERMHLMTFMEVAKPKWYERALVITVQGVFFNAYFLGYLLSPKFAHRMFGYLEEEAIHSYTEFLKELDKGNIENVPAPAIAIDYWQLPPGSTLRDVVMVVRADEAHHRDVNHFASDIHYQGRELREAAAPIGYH
From the text: O2 consumption (Clark electrode), activation of AOX in inverted membrane vesicles on GmAOX1

Q: For CC(=O)C(=O)O [pyruvate], which EC50 (GmAOX2D) is on record?
A: The EC50 was 40 µM.

Q: And the EC50 (GmAOX2A)?
A: The EC50 was 99 µM.

Q: And the EC50 (GmAOX1)?
A: The EC50 was 4 µM.
